Source: patent US9657013B2, “Inhibitors of hepatitis B virus covalently closed circular DNA formation and their method of use” (priority 2012, dated 2017)

Key:
HBV DP-rcDNA = assay: DP-rcDNA level in HepDES19 cells (Southern blot); format: cell-based, hepatitis B virus; conditions: for reduction of DP-rcDNA: early time point
From the text: Viral nucleic acid analysis: Total cellular RNA was extracted with TRIzol reagent (Invitrogen, Grand Island, N.Y.) by following manufacturer's directions. Ten microgram of total cellular RNA was resolved in 1.5% agarose gel containing 2.2 M formaldehyde and transferred onto Hybond-XL membrane (GE Healthcare, Piscataway, N.J.) in 20×SSC buffer. Intracellular hepadnaviral core DNA and cccDNA (Hirt DNA) were extracted as described previously (Guo, H., D. Jiang, T. Zhou, A. Cuconati, T. M. Block, and J. T. Guo. 2007. Guo, H., D. Jiang, T. Zhou, A. Cuconati, T. M. Block, and J. T. Guo. 2007. Guo, H., R. Mao, T. M. Block, and J. T. Guo. 2010. Guo, H., W. S. Mason, C. E. Aldrich, J. R. Saputelli, D. S. Miller, A. R. Jilbert, and J. E. Newbold. 2005). Half of the DNA samples recovered from one well of a 6-well-plate were resolved by electrophoresis into a 1.2% agarose gel and blotted onto Hybond-XL membrane. Membranes were probed with either an α-^32P-UTP (800 Ci/mmol, Perkin Elmer) labeled hepadnaviral minus (detecting DNA) or plus strand (detecting RNA) specific full-length riboprobe and exposed to a phosphorimager screen (Fuji Film, Tokyo, Japan). Hybridization signals were visualized by Typhoon FLA-7000 (GE Healthcare) and quantified with ImageQuantTL software (GE Healthcare).
Identification of compounds that inhibits cccDNA accumulation in HepDES19 cells: Compounds were tested on HepDES19 cells, which have a higher level of cccDNA production than HepDE19 cells (Guo, H., D. Jiang, T. Zhou, A. Cuconati, T. M. Block, and J. T. Guo. 2007). Briefly, after withdrawal of tetracycline, HepDES19 cells were left untreated, or were treated with compound at serial concentrations; tetracycline-free media was changed every other day with fresh compound supplementation. […] The cells were harvested at day 12, viral RNA (top panel), core DNA (middle panel), and Hirt DNA (DP-rcDNA and cccDNA) (bottom panels) were extracted and analyzed by Northern blot and Southern blot, respectively. Shorter exposure of the Hirt DNA blot was used for the quantitative determination of DP-rcDNA signals. […]

[1] = system: HBV e antigen (HBeAg) production in HepDE19 cells; assay: HBeAg ELISA in HepDE19 cells (surrogate marker for cccDNA); format: cell-based, hepatitis B virus; conditions: nine days incubation
Description: High throughput compound screen and assay: HepDE19 cells were cultured under tetracycline containing medium until confluent, the cells were then trypsinized and seeded in 96-well plates at a density of 5.0×10^4 cells/well with tetracycline-free medium to induce HBV replication. Immediately following cell seeding, compounds were added to screening plates by means of automated liquid handling (Beckman Coulter, Brea, Calif.), at a final concentration of 10 μM in 1.0% DMSO. Each screening plate consisted of 80 compound test wells, 4 wells of cells with 1.0% DMSO only, 4 wells with DMSO and without cells, and 4 wells of cells with DMSO and 50 μM lamivudine (3TC) as a reference inhibitor. […] Intracellular HBeAg (precore) accumulation was assayed by indirect ELISA assay as follows. Media was removed from wells and the cell monolayer was fixed with 100% ice cold methanol for 20 min, followed with two washes (150 μl each) with PBS containing 0.5% Tween-20 (PBST) with 1 min incubation at room temperature. […] Signal was allowed to develop for 20 minutes and optical absorbance was determined at a wavelength of 650 nm with a reference reading at 490 nm. […]

SMILES: O=C(CN(c1cc(C(F)(F)F)ccc1Cl)S(=O)(=O)c1ccccc1)NCc1ccncc1 [CCC-0975, 2-[Benzenesulfonyl-(2-chloro-5-trifluoromethyl-phenyl)-amino]-N-pyridin-4-ylmethyl-acetamide]
- reduction of putative cccDNA precursor DP-rcDNA (HBV DP-rcDNA; HepDES19 cells, day 12): significant reduction
- reduction of DP-rcDNA (HBV DP-rcDNA): significant reduction
- HBeAg production [1]: inhibitor

SMILES: Cc1nc2cc(NC(=O)c3ccc(S(=O)(=O)N(C)Cc4ccccc4)cc3)ccc2s1 [CCC-0346, 4-(Benzyl-methyl-sulfamoyl)-N-(2-methyl-benzothiazol-5-yl)-benzamide]
- reduction of DP-rcDNA (HBV DP-rcDNA): significant reduction
- HBeAg production [1]: inhibitor
